Experimental data: patent US9586952B2, “Polycyclic estrogen receptor modulators and uses thereof” (SERAGON PHARMACEUTICALS, INC., priority 2013, dated 2017)

Key:
MCF-7 cells = assay: MCF7 Viability Assay (Breast Cancer Cell Viability Assay); format: cell-based; settings: 5 days' compound exposure, CellTiter-Glo; for IC50: Homo sapiens, MCF7, 120 h
Summary of the method: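 Cells (320 per well, RPMI with 10% FBS and 20 mM HEPES) adhered overnight, then were exposed 5 days to an eleven-point semilog compound series, 0.3-0.000003 μM final. Viability read by CellTiter-Glo luminescence, background-subtracted, expressed as % of untreated cells.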

ER-α = biological target: T1, ER-α (Homo sapiens, UniProt P03372); assay: Breast Cancer Cell ER-α In Cell Western Assay (SP1); format: cell-based; settings: MCF-7 cells, 4 or 24 hr post compound addition, SP1 antibody; for Emax: MCF7, read-out: ER-α In Cell Western Assay (SP1) Max Response; for DC50: read-out: ER-α In Cell Western Assay (SP1) IC50
T1 construct: endogenous in cells; host or cells: MCF-7
T1 sequence (P03372 1-595): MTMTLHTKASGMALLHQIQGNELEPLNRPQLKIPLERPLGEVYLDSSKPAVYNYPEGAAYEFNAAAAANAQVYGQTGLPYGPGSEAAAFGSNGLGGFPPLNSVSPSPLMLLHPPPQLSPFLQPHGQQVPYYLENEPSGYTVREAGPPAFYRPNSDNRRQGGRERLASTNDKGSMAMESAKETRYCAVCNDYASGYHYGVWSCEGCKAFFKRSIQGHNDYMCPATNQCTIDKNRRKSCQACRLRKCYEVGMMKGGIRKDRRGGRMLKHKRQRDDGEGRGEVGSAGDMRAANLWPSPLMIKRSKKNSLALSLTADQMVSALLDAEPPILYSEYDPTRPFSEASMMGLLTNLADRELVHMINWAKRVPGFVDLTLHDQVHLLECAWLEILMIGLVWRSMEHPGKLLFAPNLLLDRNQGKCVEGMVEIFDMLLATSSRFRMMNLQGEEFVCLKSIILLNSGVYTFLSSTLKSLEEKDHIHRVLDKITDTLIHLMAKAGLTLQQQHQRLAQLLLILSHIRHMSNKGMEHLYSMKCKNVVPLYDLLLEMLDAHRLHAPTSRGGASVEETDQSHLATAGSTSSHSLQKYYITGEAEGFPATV
Summary of the method: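 MCF-7 cells in RPMI with 10% charcoal-stripped FBS received an eleven-point semilog series, 0.3-0.000003 μM final, for 4 or 24 hr. After fixation, ER-α stained with SP1 antibody and IRDye 800 CW, DNA with DRAQ5; % ER = 800/700 nm intensity ratio relative to untreated cells.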

Row | SMILES | MCF7 Viability Assay Max Response (MCF-7 cells) | IC50 (MCF-7 cells) [nM] | Emax (ER-α) [%] | DC50 (ER-α) [nM]
1 | O=C(O)/C=C/c1ccc(/C(=C(\c2ccccc2)C2CCC2)c2ccc(-c3ccncc3)cc2)cc1 [Example 66, (E)-3-(4-((E)-2-Cyclobutyl-2-phenyl-1-(4-(pyridin-4-yl)phenyl)vinyl)phenyl)acrylic acid] | ++ (++ = a single % value ≧ 40%) | ≤ 100 | ≥ 40 | ≤ 100
2 | Cc1cscc1/C(=C(\c1ccc(/C=C/C(=O)O)cc1)c1ccc(-c2cn[nH]c2)cc1)C1CCC1 [Example 38, (E)-3-(4-((E)-1-(4-(1H-Pyrazol-4-yl)phenyl)-2-cyclobutyl-2-(4-methylthiophen-3-yl)vinyl)phenyl)acrylic acid] | ++ (++ = a single % value ≧ 40%) | ≤ 100 | ≥ 40 | ≤ 100
3 | O=C(O)/C=C/c1ccc(/C(=C(\c2ccccc2)C2CCC2)c2ccc(-c3cn[nH]c3)cc2)cc1 [Example 1, (E)-3-(4-((E)-1-(4-(1H-Pyrazol-4-yl)phenyl)-2-cyclobutyl-2-phenylvinyl)phenyl)acrylic acid] | ++ (++ = a single % value ≧ 40%) | ≤ 100 | ≥ 40 | ≤ 100
4 | Cc1cscc1/C(=C(\c1ccc(/C=C/C(=O)O)cc1)c1ccc(-c2cncs2)cc1)C1CCC1 [Example 35, (E)-3-(4-((E)-2-Cyclobutyl-2-(4-methylthiophen-3-yl)-1-(4-(thiazol-5-yl)phenyl)vinyl)phenyl)acrylic acid] | ++ (++ = a single % value ≧ 40%) | ≤ 100 | ≥ 40 | ≤ 100
5 | CC/C(=C(/c1ccc(/C=C/C(=O)O)cc1)c1cccc(-c2ccn[nH]2)c1)c1ccccc1 [Example 7, (E)-3-(4-((E)-1-(3-(1H-Pyrazol-5-yl)phenyl)-2-phenylbut-1-en-1-yl)phenyl)acrylic acid] | + (+ = a single % value < 40%) | > 100 | ≥ 40 | > 100
6 | O=C(O)/C=C/c1ccc(/C(=C(\c2ccc(F)cc2Cl)C2CCC2)c2ccc(-c3cn[nH]c3)cc2)cc1 [Example 37, (E)-3-(4-((E)-1-(4-(1H-Pyrazol-4-yl)phenyl)-2-(2-chloro-4-fluorophenyl)-2-cyclobutylvinyl)phenyl)acrylic acid] | ++ (++ = a single % value ≧ 40%) | ≤ 100 | ≥ 40 | ≤ 100
7 | CC/C(=C(/c1ccc(/C=C/C(=O)O)cc1)c1ccc(-c2cncs2)cc1)c1ccccc1Cl [Example 29, (E)-3-(4-((E)-2-(2-Chlorophenyl)-1-(4-(thiazol-5-yl)phenyl)but-1-en-1-yl)phenyl)acrylic acid] | ++ (++ = a single % value ≧ 40%) | ≤ 100 | ≥ 40 | ≤ 100
8 | CC/C(=C(/c1ccc(/C=C/C(=O)O)cc1)c1ccc(-c2cncs2)cc1)c1ccc(F)cc1Cl [Example 2, (E)-3-(4-((E)-2-(2-Chloro-4-fluorophenyl)-1-(4-(thiazol-5-yl)phenyl)but-1-en-1-yl)phenyl)acrylic acid] | ++ (++ = a single % value ≧ 40%) | ≤ 100 | ≥ 40 | ≤ 100
9 | O=C(O)/C=C/c1ccc(/C(=C(\c2ncc(C(F)(F)F)cc2Cl)C2CCC2)c2ccc(N3CCOCC3)cc2)cc1 [Example 57, (E)-3-(4-((E)-2-(3-Chloro-5-(trifluoromethyl)pyridin-2-yl)-2-cyclobutyl-1-(4-morpholinophenyl)vinyl)phenyl)acrylic acid] | ++ (++ = a single % value ≧ 40%) | ≤ 100 | ≥ 40 | ≤ 100
10 | c1ccc(/C(=C(\c2ccc(OCCN3CCCC3)cc2)c2ccc(-c3cn[nH]c3)cc2)C2CCC2)cc1 [Example 63, (Z)-4-(4-(2-cyclobutyl-2-phenyl-1-(4-(2-(pyrrolidin-1-yl)ethoxy)phenyl)vinyl)phenyl)-1H-pyrazole] | ++ (++ = a single % value ≧ 40%) | ≤ 100 | ≥ 40 | ≤ 100
11 | O=C(O)/C=C/c1ccc(/C(=C(\c2ccc(C(F)(F)F)cc2Cl)C2CCC2)c2ccc(-c3cn[nH]c3)cc2)cc1 [Example 55, (E)-3-(4-((E)-1-(4-(1H-Pyrazol-4-yl)phenyl)-2-(2-chloro-4-(trifluoromethyl)phenyl)-2-cyclobutylvinyl)phenyl)acrylic acid] | ++ (++ = a single % value ≧ 40%) | ≤ 100 | ≥ 40 | ≤ 100
12 | COc1ccc(/C(=C(\c2ccc(/C=C/C(=O)O)cc2)c2ccc(N3CCOCC3)cc2)C2CCC2)c(Cl)c1 [Example 4, (E)-3-(4-((E)-2-(2-Chloro-4-methoxyphenyl)-2-cyclobutyl-1-(4-morpholinophenyl)vinyl)phenyl)acrylic acid] | ++ (++ = a single % value ≧ 40%) | ≤ 100 | ≥ 40 | ≤ 100
13 | COc1ccc(/C(=C(\c2ccc(/C=C/C(=O)O)cc2)c2ccc(-c3cncs3)cc2)C2CCC2)c(Cl)c1 [Example 53, (E)-3-(4-((E)-2-(2-Chloro-4-methoxyphenyl)-2-cyclobutyl-1-(4-(thiazol-5-yl)phenyl)vinyl)phenyl)acrylic acid] | ++ (++ = a single % value ≧ 40%) | ≤ 100 | ≥ 40 | ≤ 100
14 | O=C(O)/C=C/c1ccc(/C(=C(\c2ccc(OC(F)(F)F)cc2Cl)C2CCC2)c2ccc(-c3cn[nH]c3)cc2)cc1 [Example 52, (E)-3-(4-((E)-1-(4-(1H-Pyrazol-4-yl)phenyl)-2-(2-chloro-4-(trifluoromethoxy)phenyl)-2-cyclobutylvinyl)phenyl)acrylic acid] | ++ (++ = a single % value ≧ 40%) | ≤ 100 | ≥ 40 | ≤ 100
15 | O=C(O)/C=C/c1ccc(/C(=C(\c2ccccc2)C2CCC2)c2ccc(N3CCNCC3)cc2)cc1 [Example 65, (E)-3-(4-((E)-2-Cyclobutyl-2-phenyl-1-(4-(piperazin-1-yl)phenyl)vinyl)phenyl)acrylic acid] | ++ (++ = a single % value ≧ 40%) | ≤ 100 | ≥ 40 | ≤ 100
16 | CC/C(=C(/c1ccc(/C=C/C(=O)O)cc1)c1ccc(-c2cncs2)c(F)c1)c1ccccc1 [Example 21, (E)-3-(4-((E)-1-(3-Fluoro-4-(thiazol-5-yl)phenyl)-2-phenylbut-1-en-1-yl)phenyl)acrylic acid] | ++ (++ = a single % value ≧ 40%) | ≤ 100 | ≥ 40 | ≤ 100
17 | O=C(O)/C=C/c1ccc(/C(=C(\c2ccccc2)C2CCC2)c2ccc(-c3cncs3)cn2)cc1 [Example 25, (E)-3-(4-((E)-2-Cyclobutyl-2-phenyl-1-(5-(thiazol-5-yl)pyridin-2-yl)vinyl)phenyl)acrylic acid] | ++ (++ = a single % value ≧ 40%) | > 100 | ≥ 40 | > 100
18 | CC/C(=C(/c1ccc(/C=C/C(=O)O)cc1)c1ccc(N2CCOCC2)cc1)c1ccccc1 [Example 16, (E)-3-(4-((E)-1-(4-Morpholinophenyl)-2-phenylbut-1-en-1-yl)phenyl)acrylic acid] | ++ (++ = a single % value ≧ 40%) | ≤ 100 | ≥ 40 | ≤ 100
19 | N#Cc1cc(Cl)ccc1/C(=C(\c1ccc(/C=C/C(=O)O)cc1)c1ccc(N2CCOCC2)cc1)C1CCC1 [Example 46, (E)-3-(4-((E)-2-(4-Chloro-2-cyanophenyl)-2-cyclobutyl-1-(4-morpholinophenyl)vinyl)phenyl)acrylic acid] | ++ (++ = a single % value ≧ 40%) | ≤ 100 | ≥ 40 | ≤ 100
